# Tested on: HCV replicon
# Test: HCV replicon replication assay (NPT level by captured ELISA)
# Type: cell-based
# Conditions: Hepatitis C virus, 72 h; Huh-7 HCV replicon-containing cells, three days incubation; read-out: Activity (inhibition of HCV replicon replication)
# Method in brief: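 Huh-7 cells carrying HCV subgenomic replicon (NS3–NS5B, neo reporter) treated 3 days at 37 °C with 6 concentrations from 10 to 0.03 micromolar in G418-free medium, equal DMSO across wells. Replication measured on day four as NPTII level by in-cell captured ELISA on fixed cells; interferon alpha as positive control.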
row,Structure (SMILES),EC50
1,"Fc1ccc(C#CCCOc2ccc(Nc3nc(-c4cccnc4)c(F)s3)cc2C(F)(F)F)cc1 [Cmp 163, 5-fluoro-N-(4-(4-(4-fluorophenyl)but-3-ynyloxy)-3-(trifluoromethyl)phenyl)-4-(pyridin-3-yl)thiazol-2-amine]",< 1000 nM
2,"CCCCCCCCOc1ccc(Nc2ncc(-c3cccnc3)s2)cc1C(F)(F)F [Cmp 164, N-(4-(octyloxy)-3-(trifluoromethyl)phenyl)-5-(pyridin-3-yl)thiazol-2-amine]",< 1000 nM
3,"CC/C=C\CCCCOc1ccc(Nc2nc(-c3cccnc3)c(F)s2)cc1C(F)(F)F [Cmp 165, (Z)-5-fluoro-N-(4-(oct-5-enyloxy)-3-(trifluoromethyl)phenyl)-4-(pyridin-3-yl)thiazol-2-amine]",< 1000 nM
4,"CCCCCCCCOc1ccc(Nc2nc(-c3ccncc3)c(F)s2)cc1C(F)(F)F [Cmp 166, 5-fluoro-N-(4-(octyloxy)-3-(trifluoromethyl)phenyl)-4-(pyridin-4-yl)thiazol-2-amine]",< 1000 nM
5,"CCCCCCCCc1ccc(Nc2nc(-c3ccncc3)c(F)s2)cc1C(F)(F)F [Cmp 167, 5-fluoro-N-(4-octyl-3-(trifluoromethyl)phenyl)-4-(pyridin-4-yl)thiazol-2-amine]",< 1000 nM
6,"CCCCCCCCc1ccc(Nc2nc(-c3ccc(F)nc3)cs2)cc1C(F)(F)F [Cmp 168, 4-(6-fluoropyridin-3-yl)-N-(4-octyl-3-(trifluoromethyl)phenyl)thiazol-2-amine]",< 1000 nM
7,"CCCCCCCCOc1ccc(Nc2nc(-c3cccnc3)c(Cl)s2)cc1C(C)=O [Cmp 169, 1-(5-(5-chloro-4-(pyridin-3-yl)thiazol-2-ylamino)-2-(octyloxy)phenyl)ethanone]",< 1000 nM
8,"CCCCCCCCc1ccc(Nc2nc(-c3cnccn3)c(Cl)s2)cc1C(F)(F)F [Cmp 170, 5-chloro-N-(4-octyl-3-(trifluoromethyl)phenyl)-4-(pyrazin-2-yl)thiazol-2-amine]",< 1000 nM
9,"FC(F)(F)c1cc(Nc2nc(-c3cccnc3)cs2)ccc1OC1Cc2ccccc2C1 [Cmp 171, N-(4-(2,3-dihydro-1H-inden-2-yloxy)-3-(trifluoromethyl)phenyl)-4-(pyridin-3-yl)thiazol-2-amine]",< 1000 nM
10,"CCCC/C=C\CCOc1ccc(Nc2nc(-c3cccnc3)c(F)s2)cc1C(F)(F)F [Cmp 172, (Z)-5-fluoro-N-(4-(oct-3-enyloxy)-3-(trifluoromethyl)phenyl)-4-(pyridin-3-yl)thiazol-2-amine]",< 1000 nM
11,"Fc1ccc(-c2nc(Nc3ccc(OCCCC4CCCC4)c(C(F)(F)F)c3)sc2F)cn1 [Cmp 173, N-(4-(3-cyclopentylpropoxy)-3-(trifluoromethyl)phenyl)-5-fluoro-4-(6-fluoropyridin-3-yl)thiazol-2-amine]",< 1000 nM
12,"CCCCCCCCc1ccc(Nc2nc(-c3ccc(F)nc3)c(F)s2)cc1C(F)(F)F [Cmp 174, 5-fluoro-4-(6-fluoropyridin-3-yl)-N-(4-octyl-3-(trifluoromethyl)phenyl)thiazol-2-amine]",< 1000 nM
13,"CCCCCCCCOc1ccc(Nc2nc(-c3ccc(F)nc3)c(F)s2)cc1C(F)(F)F [Cmp 175, 5-fluoro-4-(6-fluoropyridin-3-yl)-N-(4-(octyloxy)-3-(trifluoromethyl)phenyl)thiazol-2-amine]",< 1000 nM
14,"Fc1sc(Nc2ccc(OC3Cc4ccccc4C3)c(C(F)(F)F)c2)nc1-c1cccnc1 [Cmp 176, N-(4-(2,3-dihydro-1H-inden-2-yloxy)-3-(trifluoromethyl)phenyl)-5-fluoro-4-(pyridin-3-yl)thiazol-2-amine]",< 1000 nM
15,"CCCCCCCCOc1ccc(Nc2nc(-c3ccc4nncn4c3)cs2)cc1C(F)(F)F [Cmp 177, 4-([1,2,4]triazolo[4,3-a]pyridin-6-yl)-N-(4-(octyloxy)-3-(trifluoromethyl)phenyl)thiazol-2-amine]",< 1000 nM
16,"CCCCCCCCc1ccc(Nc2nc(-c3ccc4nncn4c3)cs2)cc1C(F)(F)F [Cmp 178, 4-([1,2,4]triazolo[4,3-a]pyridin-6-yl)-N-(4-octyl-3-(trifluoromethyl)phenyl)thiazol-2-amine]",< 1000 nM
17,"CCCCCCCCc1cc2cc(Nc3nc(-c4ccc5nncn5c4)cs3)ccc2o1 [Cmp 179, 4-([1,2,4]triazolo[4,3-a]pyridin-6-yl)-N-(2-octylbenzofuran-5-yl)thiazol-2-amine]",< 1000 nM
18,"CCCCCCCCc1ccc(Nc2nc(-c3cncc(C#N)c3)cs2)cc1C(F)(F)F [Cmp 180, 5-(2-(4-octyl-3-(trifluoromethyl)phenylamino)thiazol-4-yl)nicotinonitrile]",< 1000 nM
19,"CCCCCCCCOc1ccc(Nc2nc(-c3cncc(C#N)c3)c(F)s2)cc1C(F)(F)F [Cmp 181, 5-(5-fluoro-2-(4-(octyloxy)-3-(trifluoromethyl)phenylamino)thiazol-4-yl)nicotinonitrile]",< 1000 nM
20,"CCCCCCCCc1ccc(Nc2nc(-c3cncc(C#N)c3)c(F)s2)cc1C(F)(F)F [Cmp 182, 5-(5-fluoro-2-(4-octyl-3-(trifluoromethyl)phenylamino)thiazol-4-yl)nicotinonitrile]",< 1000 nM
21,"CCCCCCCCc1oc2ccc(Nc3nc(-c4cccnc4)cs3)cc2c1Cl [Cmp 183, N-(3-chloro-2-octylbenzofuran-5-yl)-4-(pyridin-3-yl)thiazol-2-amine]",< 1000 nM
22,"CCCCCCCCOc1ccc(Nc2nc(-c3cc(F)sc3C(N)=O)cs2)cc1C(F)(F)F [Cmp 184, 5-fluoro-3-(2-(4-(octyloxy)-3-(trifluoromethyl)phenylamino)thiazol-4-yl)thiophene-2-carboxamide]",< 1000 nM
23,"CCCCCCCCc1ccc(Nc2nc(-c3ccc(O)c(C(N)=O)c3)c(Cl)s2)cc1C(F)(F)F [Cmp 185, 5-(5-chloro-2-(4-octyl-3-(trifluoromethyl)phenylamino)thiazol-4-yl)-2-hydroxybenzamide]",< 1000 nM
24,"CCCCCCCCOc1ccc(Nc2nc(-c3ccc(O)c(C(N)=O)c3)c(Cl)s2)cc1C(F)(F)F [Cmp 186, 5-(5-chloro-2-(4-(octyloxy)-3-(trifluoromethyl)phenylamino)thiazol-4-yl)-2-hydroxybenzamide]",< 1000 nM
25,"CCCCCCCCOc1ccc(Nc2nc(-c3cnc4[nH]c(=O)[nH]c4c3)cs2)cc1C(F)(F)F [Cmp 187, 6-(2-(4-(octyloxy)-3-(trifluoromethyl)phenylamino)thiazol-4-yl)-1H-imidazo[4,5-b]pyridin-2(3H)-one]",< 1000 nM
26,"CCCCCCCCOc1ccc(Nc2nc(-c3ccsc3C(N)=O)c(F)s2)cc1C(F)(F)F [Cmp 188, 3-(5-fluoro-2-(4-(octyloxy)-3-(trifluoromethyl)phenylamino)thiazol-4-yl)thiophene-2-carboxamide]",< 1000 nM
27,"CCCCCCCCc1oc2ccc(Nc3nc(-c4cccnc4)c(F)s3)cc2c1Cl [Cmp 189, N-(3-chloro-2-octylbenzofuran-5-yl)-5-fluoro-4-(pyridin-3-yl)thiazol-2-amine]",< 1000 nM
28,"Fc1sc(Nc2ccc(OCCCCC3CCCC3)c(C(F)(F)F)c2)nc1-c1cccnc1 [Cmp 190, N-(4-(4-cyclopentylbutoxy)-3-(trifluoromethyl)phenyl)-5-fluoro-4-(pyridin-3-yl)thiazol-2-amine]",< 1000 nM
29,"Fc1sc(Nc2ccc(OCCC#CC3CCCC3)c(C(F)(F)F)c2)nc1-c1cccnc1 [Cmp 191, N-(4-(4-cyclopentylbut-3-ynyloxy)-3-(trifluoromethyl)phenyl)-5-fluoro-4-(pyridin-3-yl)thiazol-2-amine]",< 1000 nM
